Tests used:
Assay in all cases: Histone peptide microarray
Assay type in all cases: binding, human
PHF13 = conditions: total n = 4; for Array Heatmap signal, PHF13: sheet "Array Heatmap", GST-tagged reader, histone peptide array
How it was run: (§1)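 Each reader, produced as a GST fusion and purified, was tested at 0.5 μM on synthetic histone peptides (293 in total) carrying single or combinatorial marks. Intensities averaged over four replicates.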

TAF3 = conditions: total n = 4; for Array Heatmap signal, TAF3: sheet "Array Heatmap", GST-tagged reader, histone peptide array
How it was run: as §1

BAZ2B = conditions: total n = 4; for Array Heatmap signal, BAZ2B: sheet "Array Heatmap", GST-tagged reader, histone peptide array
How it was run: as §1

KDM5B (3) = conditions: total n = 4; for Array Heatmap signal, KDM5B (3): sheet "Array Heatmap", GST-tagged reader, histone peptide array
How it was run: as §1

KDM5B (1) = conditions: total n = 4; for Array Heatmap signal, KDM5B (1): sheet "Array Heatmap", GST-tagged reader, histone peptide array
How it was run: as §1

SP140L = conditions: total n = 4; for Array Heatmap signal, SP140L: sheet "Array Heatmap", GST-tagged reader, histone peptide array
How it was run: as §1

PHF23 = conditions: total n = 4; for Array Heatmap signal, PHF23: sheet "Array Heatmap", GST-tagged reader, histone peptide array
How it was run: as §1

KDM5A (1) = conditions: total n = 4; for Array Heatmap signal, KDM5A (1): sheet "Array Heatmap", GST-tagged reader, histone peptide array
How it was run: as §1

ING3 = conditions: total n = 4; for Array Heatmap signal, ING3: sheet "Array Heatmap", GST-tagged reader, histone peptide array
How it was run: as §1

DIDO1 = conditions: total n = 4; for Array Heatmap signal, DIDO1: sheet "Array Heatmap", GST-tagged reader, histone peptide array
How it was run: as §1

ING2 = conditions: total n = 4; for Array Heatmap signal, ING2: sheet "Array Heatmap", GST-tagged reader, histone peptide array
How it was run: as §1

DPF2 (PPC2W2) = conditions: total n = 4; for Array Heatmap signal, DPF2 (PPC2W2): sheet "Array Heatmap", GST-tagged reader, histone peptide array
How it was run: as §1

PHF21A = conditions: total n = 4; for Array Heatmap signal, PHF21A: sheet "Array Heatmap", GST-tagged reader, histone peptide array
How it was run: as §1

PHF2 = conditions: total n = 4; for Array Heatmap signal, PHF2: sheet "Array Heatmap", GST-tagged reader, histone peptide array
How it was run: as §1

ING1 = conditions: total n = 4; for Array Heatmap signal, ING1: sheet "Array Heatmap", GST-tagged reader, histone peptide array
How it was run: as §1

PHF8 = conditions: total n = 4; for Array Heatmap signal, PHF8: sheet "Array Heatmap", GST-tagged reader, histone peptide array
How it was run: as §1

KDM7A = conditions: total n = 4; for Array Heatmap signal, KDM7A: sheet "Array Heatmap", GST-tagged reader, histone peptide array
How it was run: as §1

RAG2 = conditions: total n = 4; for Array Heatmap signal, RAG2: sheet "Array Heatmap", GST-tagged reader, histone peptide array
How it was run: as §1

BPTF (PB) = conditions: total n = 4; for Array Heatmap signal, BPTF (PB): sheet "Array Heatmap", GST-tagged reader, histone peptide array
How it was run: as §1

CHD4 (PPCC) = conditions: total n = 4; for Array Heatmap signal, CHD4 (PPCC): sheet "Array Heatmap", GST-tagged reader, histone peptide array
How it was run: as §1

CHD5 (PCC) = conditions: total n = 4; for Array Heatmap signal, CHD5 (PCC): sheet "Array Heatmap", GST-tagged reader, histone peptide array
How it was run: as §1

KDM4C (TTP) = conditions: total n = 4; for Array Heatmap signal, KDM4C (TTP): sheet "Array Heatmap", GST-tagged reader, histone peptide array
How it was run: as §1

MORC3 (CW) = conditions: total n = 4; for Array Heatmap signal, MORC3 (CW): sheet "Array Heatmap", GST-tagged reader, histone peptide array
How it was run: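 Steps: express and purify GST-tagged PHD reader; incubate 0.5 μM protein on a peptide microarray (293 histone peptides, single or combined PTMs) following an optimized protocol; average signal across 4 replicates.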

CHD5 (PPCC) = conditions: total n = 4; for Array Heatmap signal, CHD5 (PPCC): sheet "Array Heatmap", GST-tagged reader, histone peptide array
How it was run: as §1

TRIM66 (PB) = conditions: total n = 4; for Array Heatmap signal, TRIM66 (PB): sheet "Array Heatmap", GST-tagged reader, histone peptide array
How it was run: as §1

PHRF1 (RP) = conditions: total n = 4; for Array Heatmap signal, PHRF1 (RP): sheet "Array Heatmap", GST-tagged reader, histone peptide array
How it was run: as §1

MLL5 = conditions: total n = 4; for Array Heatmap signal, MLL5: sheet "Array Heatmap", GST-tagged reader, histone peptide array
How it was run: as §1

ING4 = conditions: total n = 4; for Array Heatmap signal, ING4: sheet "Array Heatmap", GST-tagged reader, histone peptide array
How it was run: as §1

KDM5A (3) = conditions: total n = 4; for Array Heatmap signal, KDM5A (3): sheet "Array Heatmap", GST-tagged reader, histone peptide array
How it was run: as §1

AIRE (PP) = conditions: total n = 4; for Array Heatmap signal, AIRE (PP): sheet "Array Heatmap", GST-tagged reader, histone peptide array
How it was run: as §1

ING5 = conditions: total n = 4; for Array Heatmap signal, ING5: sheet "Array Heatmap", GST-tagged reader, histone peptide array
How it was run: as §1

Substance: H3K4me3 + K9ac + S10p: H3 1-20
- Array Heatmap signal, PHF13 (PHF13): 0.601
- Array Heatmap signal, TAF3 (TAF3): 0.3627
- Array Heatmap signal, BAZ2B (BAZ2B): 0.4222
- Array Heatmap signal, KDM5B (3) (KDM5B (3)): 0.4789
- Array Heatmap signal, KDM5B (1) (KDM5B (1)): 0.5673
- Array Heatmap signal, SP140L (SP140L): 0.3742
- Array Heatmap signal, PHF23 (PHF23): 0.5778
- Array Heatmap signal, KDM5A (1) (KDM5A (1)): 0.422
- Array Heatmap signal, ING3 (ING3): 0.5024
- Array Heatmap signal, DIDO1 (DIDO1): 0.8464
- Array Heatmap signal, ING2 (ING2): 0.7056
- Array Heatmap signal, DPF2 (PPC2W2) (DPF2 (PPC2W2)): 0.6858
- Array Heatmap signal, PHF21A (PHF21A): 0.4669
- Array Heatmap signal, PHF2 (PHF2): 0.6992
- Array Heatmap signal, ING1 (ING1): 0.6226
- Array Heatmap signal, PHF8 (PHF8): 0.4377
- Array Heatmap signal, KDM7A (KDM7A): 0.3478
- Array Heatmap signal, RAG2 (RAG2): 0.3673
- Array Heatmap signal, BPTF (PB) (BPTF (PB)): 0.3713
- Array Heatmap signal, CHD4 (PPCC) (CHD4 (PPCC)): 0.6064
- Array Heatmap signal, CHD5 (PCC) (CHD5 (PCC)): 0.7803
- Array Heatmap signal, KDM4C (TTP) (KDM4C (TTP)): 0.4439
- Array Heatmap signal, MORC3 (CW) (MORC3 (CW)): 0.5046
- Array Heatmap signal, CHD5 (PPCC) (CHD5 (PPCC)): 0.5185
- Array Heatmap signal, TRIM66 (PB) (TRIM66 (PB)): 0.5913
- Array Heatmap signal, PHRF1 (RP) (PHRF1 (RP)): 0.5333
- Array Heatmap signal, MLL5 (MLL5): 0.6372
- Array Heatmap signal, ING4 (ING4): 0.4594
- Array Heatmap signal, KDM5A (3) (KDM5A (3)): 0.592
- Array Heatmap signal, AIRE (PP) (AIRE (PP)): 0.4053
- Array Heatmap signal, ING5 (ING5): 0.3414

Substance: H3K4me3 + K9ac: H3 1-20
- Array Heatmap signal (histone peptide microarray) (PHF13; GST-tagged PHF13, sheet Array Heatmap, each array performed twice): 0.7477
- Array Heatmap signal (histone peptide microarray) (TAF3; GST-tagged TAF3, sheet Array Heatmap, each array performed twice): 0.7366
- Array Heatmap signal (histone peptide microarray) (BAZ2B; GST-tagged BAZ2B, sheet Array Heatmap, each array performed twice): 0.4768
- Array Heatmap signal (histone peptide microarray) (KDM5B (3); GST-tagged KDM5B (3), sheet Array Heatmap, each array performed twice): 0.7448
- Array Heatmap signal (histone peptide microarray) (KDM5B (1); GST-tagged KDM5B (1), sheet Array Heatmap, each array performed twice): 0.7027
- Array Heatmap signal (histone peptide microarray) (SP140L; GST-tagged SP140L, sheet Array Heatmap, each array performed twice): 0.3446
- Array Heatmap signal (histone peptide microarray) (PHF23; GST-tagged PHF23, sheet Array Heatmap, each array performed twice): 0.8466
- Array Heatmap signal (histone peptide microarray) (KDM5A (1); GST-tagged KDM5A (1), sheet Array Heatmap, each array performed twice): 0.468
- Array Heatmap signal (histone peptide microarray) (ING3; GST-tagged ING3, sheet Array Heatmap, each array performed twice): 0.8165
- Array Heatmap signal (histone peptide microarray) (DIDO1; GST-tagged DIDO1, sheet Array Heatmap, each array performed twice): 0.9386
- Array Heatmap signal (histone peptide microarray) (ING2; GST-tagged ING2, sheet Array Heatmap, each array performed twice): 0.8738
- Array Heatmap signal (histone peptide microarray) (DPF2 (PPC2W2); GST-tagged DPF2 (PPC2W2 = Dual PHD + C2W2-type Zn-finger), sheet Array Heatmap, each array performed twice): 0.7108
- Array Heatmap signal (histone peptide microarray) (PHF21A; GST-tagged PHF21A, sheet Array Heatmap, each array performed twice): 0.4382
- Array Heatmap signal (histone peptide microarray) (PHF2; GST-tagged PHF2, sheet Array Heatmap, each array performed twice): 0.9106
- Array Heatmap signal (histone peptide microarray) (ING1; GST-tagged ING1, sheet Array Heatmap, each array performed twice): 0.8182
- Array Heatmap signal (histone peptide microarray) (PHF8; GST-tagged PHF8, sheet Array Heatmap, each array performed twice): 0.6077
- Array Heatmap signal (histone peptide microarray) (KDM7A; GST-tagged KDM7A, sheet Array Heatmap, each array performed twice): 0.4556
- Array Heatmap signal (histone peptide microarray) (RAG2; GST-tagged RAG2, sheet Array Heatmap, each array performed twice): 0.8735
- Array Heatmap signal (histone peptide microarray) (BPTF (PB); GST-tagged BPTF (PB = PHD + Bromodomain), sheet Array Heatmap, each array performed twice): 0.6012
- Array Heatmap signal (histone peptide microarray) (CHD4 (PPCC); GST-tagged CHD4 (PPCC = Dual PHD + Dual Chromodomain), sheet Array Heatmap, each array performed twice): 0.6185
- Array Heatmap signal (histone peptide microarray) (CHD5 (PCC); GST-tagged CHD5 (PCC = PHD + Dual Chromodomain), sheet Array Heatmap, each array performed twice): 0.7875
- Array Heatmap signal (histone peptide microarray) (KDM4C (TTP); GST-tagged KDM4C (TTP = Tandem Tudor domain + PHD), sheet Array Heatmap, each array performed twice): 0.5829
- Array Heatmap signal (histone peptide microarray) (MORC3 (CW); GST-tagged MORC3 (CW = CW-type Zn-finger), sheet Array Heatmap, each array performed twice): 0.7776
- Array Heatmap signal (histone peptide microarray) (CHD5 (PPCC); GST-tagged CHD5 (PPCC = Dual PHD + Dual Chromodomain), sheet Array Heatmap, each array performed twice): 0.5612
- Array Heatmap signal (histone peptide microarray) (TRIM66 (PB); GST-tagged TRIM66 (PB = PHD + Bromodomain), sheet Array Heatmap, each array performed twice): 0.6603
- Array Heatmap signal (histone peptide microarray) (PHRF1 (RP); GST-tagged PHRF1 (RP), sheet Array Heatmap, each array performed twice): 0.6133
- Array Heatmap signal (histone peptide microarray) (MLL5; GST-tagged MLL5, sheet Array Heatmap, each array performed twice): 0.8313
- Array Heatmap signal (histone peptide microarray) (ING4; GST-tagged ING4, sheet Array Heatmap, each array performed twice): 0.6305
- Array Heatmap signal (histone peptide microarray) (KDM5A (3); GST-tagged KDM5A (3), sheet Array Heatmap, each array performed twice): 0.93
- Array Heatmap signal (histone peptide microarray) (AIRE (PP); GST-tagged AIRE (PP), sheet Array Heatmap, each array performed twice): 0.4068
- Array Heatmap signal (histone peptide microarray) (ING5; GST-tagged ING5, sheet Array Heatmap, each array performed twice): 0.4241

Substance: H3K4me3 + K9me3: H3 1-20
- Array Heatmap signal, PHF13 (PHF13): 0.6561
- Array Heatmap signal, TAF3 (TAF3): 0.3501
- Array Heatmap signal, BAZ2B (BAZ2B): 0.4905
- Array Heatmap signal, KDM5B (3) (KDM5B (3)): 0.5506
- Array Heatmap signal, KDM5B (1) (KDM5B (1)): 0.6368
- Array Heatmap signal, SP140L (SP140L): 0.3795
- Array Heatmap signal, PHF23 (PHF23): 0.5934
- Array Heatmap signal, KDM5A (1) (KDM5A (1)): 0.4868
- Array Heatmap signal, ING3 (ING3): 0.5385
- Array Heatmap signal, DIDO1 (DIDO1): 0.7556
- Array Heatmap signal, ING2 (ING2): 0.7112
- Array Heatmap signal, DPF2 (PPC2W2) (DPF2 (PPC2W2)): 0.7108
- Array Heatmap signal, PHF21A (PHF21A): 0.4927
- Array Heatmap signal, PHF2 (PHF2): 0.6501
- Array Heatmap signal, ING1 (ING1): 0.6677
- Array Heatmap signal, PHF8 (PHF8): 0.4712
- Array Heatmap signal, KDM7A (KDM7A): 0.4063
- Array Heatmap signal, RAG2 (RAG2): 0.359
- Array Heatmap signal, BPTF (PB) (BPTF (PB)): 0.3806
- Array Heatmap signal, CHD4 (PPCC) (CHD4 (PPCC)): 0.5681
- Array Heatmap signal, CHD5 (PCC) (CHD5 (PCC)): 0.7845
- Array Heatmap signal, KDM4C (TTP) (KDM4C (TTP)): 0.5629
- Array Heatmap signal, MORC3 (CW) (MORC3 (CW)): 0.5189
- Array Heatmap signal, CHD5 (PPCC) (CHD5 (PPCC)): 0.5893
- Array Heatmap signal, TRIM66 (PB) (TRIM66 (PB)): 0.5701
- Array Heatmap signal, PHRF1 (RP) (PHRF1 (RP)): 0.5034
- Array Heatmap signal, MLL5 (MLL5): 0.6708
- Array Heatmap signal, ING4 (ING4): 0.4847
- Array Heatmap signal, KDM5A (3) (KDM5A (3)): 0.6222
- Array Heatmap signal, AIRE (PP) (AIRE (PP)): 0.4775
- Array Heatmap signal, ING5 (ING5): 0.4091
